The values below come from patent US20210393664A1, “THERAPEUTIC METHODS AND COMPOSITIONS FOR TREATING ACUTE MYELOID LEUKEMIA USING DEVIMISTAT” (Rafael Pharmaceuticals, Inc., priority 2018, published 2021).

A short description of data set [1]: Leaching of DEHP from IV infusion sets and IV bags. The format is physicochemical. The note with it: DEHP-containing IV infusion sets and IV bags.
Data set [2] in a line: Adverse events by relatedness to devimistat. Conditions: patients. The format is in vivo, human. The source says: An AE can therefore be any unfavorable sign (including an abnormal laboratory finding), symptom, or disease temporarily associated with the study treatment, whether or not related to the investigational product.
Probably Related—A clinical event follows a reasonable temporal sequence from the time of Investigational Product (CPI-613®) administration. The toxicity cannot be reasonably explained by other factors such as the subjects clinical state or concurrent medical condition, or concurrent medication(s).
Possibly Related—A clinical event follows a reasonable temporal sequence from the time of active Investigational Product (CPI-613®) administration, but could also have been produced by other factors such as the subjects clinical state, or concurrent medical condition, or concurrent medication(s).

Details of data set [3]: species or system animal. The note with it: in vivo, iv. As for the experimental part: (§1) Diluted CPI-613® (devimistat) drug product must be administered over 2 hours, concurrently with D5W at the rate of 125 mL/hour, by IV infusion via a central line catheter, using an infusion pump, that is free flowing and free of air in the dead space of the IV catheter. This is done to minimize vascular irritation, inflammation and acute toxicity of CPI-613® (devimistat) (Study NCL-049). […] To avoid local reactions at and around the site of administration, CPI-613® (devimistat) must be administered via a central IV catheter.

Data set [4] can be described thus: Animal study NCL-049: extra air in the dead space of IV catheters during administration. The format is in vivo. Conditions: accidental co-administration of extra air in the dead space of IV catheters; animal studies (Study NCL-049). As for the experimental part: as §1

As for `O=C(O)CCCCC(CCSCc1ccccc1)SCc1ccccc1` (stereo not shown) [devimistat, 6,8-bis-benzylthio-octanoic acid], the “leaching of DEHP” value in data set [1] was “can cause leaching of DEHP from IV infusion sets and IV bags”. Besides, in data set [2], the “adverse events probably related” value is “Nausea, Vomiting, Diarrhea, Increased creatinine, Neutropenia, Hyperkalemia, Hypoalbuminemia, Hypophosphatemia, Hyponatremia, Fatigue, Platelet count decreased, Renal failure (reversible), Glomerular filtration rate (decreased), Hemoglobin (anemia)”. For the same compound, in data set [3], the local inflammation result is “significant local inflammation”. Also, the acute toxicity entry in data set [4] was “potential to induce acute toxicity”.
